The supplement of paper PMC8967900

Columns and labels:
Assay in all cases: selective drug sensitivity score (sDSS, relative to normal bone marrow) (sDSS (score)); higher = more potent and effective on the cell line relative to normal bone marrow cells
Details in all cases: 72 h
697 = system: 697
COG-LL-355h = system: COG-LL-355h
RPMI-8402 = system: RPMI-8402
NALL-1 = system: NALL-1
KARPAS-45 = system: KARPAS-45
SEM cells = system: SEM cells
SUP-B15 = system: SUP-B15
P30-OHKUBO = system: P30-OHKUBO
KASUMI-10 = system: KASUMI-10
MHH-CALL-4 = system: MHH-CALL-4
NALM-6 = system: NALM-6
MHH-CALL-2 = system: MHH-CALL-2
COG-LL-319h = system: COG-LL-319h
CCRF-CEM = system: CCRF-CEM
KASUMI-2 = system: KASUMI-2
PF-382 = system: PF-382
ALL-SIL = system: ALL-SIL
TMD5 = system: TMD5
NALM-16 = system: NALM-16
TANOUE = system: TANOUE
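Also: ALL cell lines in 384-well plates, five doses spanning 10,000-fold, each plate scaled between vehicle and 100 µmol/L benzalkonium chloride controls, sDSS an adapted area-under-curve metric.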

| Structure (SMILES) | selective drug sensitivity score 697 | selective drug sensitivity score (COG-LL-355h) | selective drug sensitivity score (RPMI-8402) | selective drug sensitivity score (NALL-1) | selective drug sensitivity score (KARPAS-45) | selective drug sensitivity score (SEM cells) | selective drug sensitivity score (SUP-B15) | selective drug sensitivity score (P30-OHKUBO) | selective drug sensitivity score (KASUMI-10) | selective drug sensitivity score (MHH-CALL-4) | selective drug sensitivity score (NALM-6) | selective drug sensitivity score (MHH-CALL-2) | selective drug sensitivity score (COG-LL-319h) | selective drug sensitivity score (CCRF-CEM) | selective drug sensitivity score (KASUMI-2) | selective drug sensitivity score (PF-382) | selective drug sensitivity score (ALL-SIL) | selective drug sensitivity score (TMD5) | selective drug sensitivity score (NALM-16) | selective drug sensitivity score (TANOUE) |
| --- | --- | --- | --- | --- | --- | --- | --- | --- | --- | --- | --- | --- | --- | --- | --- | --- | --- | --- | --- | --- |
| Cc1nc(-c2cn3c(n2)-c2ccc(-c4cnn(C(C)(C)C(N)=O)c4)cc2OCC3)n(C(C)C)n1 [Taselisib] (top concentration 1000 nM) | 3.9 | 11.9 | 1.5 | -1.7 | 2 | 5.2 | -1.4 | 12.2 | 1.7 | 7.9 | 9.5 | 6.9 | 4.1 | 3.9 | 4 | 3 | 1.2 | -4.3 | 4.2 | -4.3 |
| Cc1nc(Nc2ncc(C(=O)Nc3c(C)cccc3Cl)s2)cc(N2CCN(CCO)CC2)n1 [Dasatinib] (top concentration 1000 nM) | 3.1 | -2.8 | -0.8 | -2.8 | 1.7 | -2.4 | 30.2 | 6.1 | -2.8 | -2.8 | 3.3 | -2.8 | 9.2 | -2.8 | -2.8 | 10.8 | 41.4 | 10.4 | -2.8 | -2.8 |
| N#CCNC(=O)c1ccc(-c2ccnc(Nc3ccc(N4CCOCC4)cc3)n2)cc1 [Momelotinib] (top concentration 10000 nM) | 2.68 | -0.92 | -0.82 | -6.72 | 0.18 | 1.48 | 0.88 | 1.58 | 0.98 | -1.12 | -0.32 | -2.22 | 0.28 | -2.52 | -5.82 | -3.42 | -1.82 | -4.72 | -8.32 | -9.62 |
| C[C@@H](Oc1ccc2[nH]nc(/C=C/c3cnn(CCO)c3)c2c1)c1c(Cl)cncc1Cl (top concentration 1000 nM) | 1.96 | 0.36 | -3.14 | -1.74 | 0.56 | 6.26 | 6.76 | 6.06 | 5.46 | -0.64 | 7.16 | -0.74 | 4.66 | -2.74 | -7.04 | -2.14 | 14.3 | -0.74 | -1.44 | -7.04 |
| Cc1ncc(-c2ccnc(Nc3ccc(S(C)(=O)=O)cc3)n2)n1C(C)C [AZD-5438] (top concentration 10000 nM) | 0.94 | 3.94 | -0.76 | -6.86 | 2.64 | 2.34 | 9.74 | 0.84 | 6.04 | -6.86 | 1.44 | -1.06 | 8.54 | 3.54 | -0.86 | -2.46 | -3.86 | -5.96 | -6.16 | -9.96 |
| CN1CCN(c2nc(C3=C(c4c[nH]c5ccccc45)C(=O)NC3=O)c3ccccc3n2)CC1 [Sotrastaurin] (top concentration 10000 nM) | 8 | 5.7 | 0 | 1.9 | -0.4 | 6.7 | 2.2 | 3.1 | 7.7 | 4.2 | 0.8 | 9.9 | 4.7 | -0.1 | 2.8 | -1.9 | 2.7 | 2.9 | 1.8 | -2.3 |
| O=C(Nc1cccc(Nc2ncc(Br)c(NCCc3cnc[nH]3)n2)c1)N1CCCC1 [BX-912] (top concentration 10000 nM) | 10.4 | 1.36 | 3.36 | 7.36 | 3.56 | 13.4 | 11.9 | 10.9 | 12.8 | 3.06 | 6.46 | 2.86 | 12.7 | 9.96 | 5.86 | 5.06 | 9.36 | 2.06 | -0.14 | -7.04 |
| CC(C)c1c(C(=O)Nc2ccccc2)c(-c2ccccc2)c(-c2ccc(F)cc2)n1CC[C@@H](O)C[C@@H](O)CC(=O)O [Atorvastatin] (top concentration 10000 nM) | -2.4 | 4.2 | 2.9 | 0.1 | 3.5 | 0.4 | 0.8 | -2.2 | -1.8 | 0.1 | 1.4 | 0 | -1 | 0.3 | -3.7 | -1 | 4.2 | -1.6 | -3.7 | -3.7 |
| COc1cccc(OCCCN)c1-c1cc(Nc2cnc(C#N)cn2)n[nH]1 [Prexasertib] (top concentration 10000 nM) | 18.4 | 4.24 | 19.2 | 19.4 | 17.5 | 15.9 | 20.9 | 21.3 | 16.1 | 11.4 | 18.4 | 20.1 | 19.4 | 18.8 | 16.2 | 16.9 | 20.8 | 8.94 | 13.8 | -0.86 |
| CCn1c(C(=O)N(C2CC2)C2CC2)cc2c3c(ncn3C)c(Nc3cc(C)n(C)n3)nc21 (top concentration 10000 nM) | -3.76 | 1.14 | -4.16 | 0.44 | -3.06 | 0.94 | -4.36 | -3.66 | -0.66 | -1.56 | -4.36 | 3.44 | -4.36 | -3.96 | -4.36 | -4.36 | -4.36 | -4.36 | -4.36 | -4.36 |
| CC(C)c1cc(C(=O)N2Cc3ccc(CN4CCN(C)CC4)cc3C2)c(O)cc1O [Onalespib] (top concentration 2500 nM) | 2.82 | 3.32 | 1.32 | -4.68 | 5.42 | 3.92 | 3.92 | 1.32 | 3.92 | -0.48 | 5.52 | -1.28 | 7.92 | 4.62 | 7.72 | 5.62 | 4.52 | -3.28 | 1.82 | -6.48 |
| Cc1noc2c1-c1ccccc1C(c1ccc(Cl)cc1)=N[C@H]2CC(N)=O [CPI-0610] (top concentration 10000 nM) | 7.1 | 10.3 | 4.4 | -4.4 | 6.7 | 7.5 | 5.7 | 6.1 | 4.6 | -4.1 | 5.6 | -3 | 10.3 | -0.1 | -5.8 | 3.5 | -0.6 | 0 | 1.4 | -5.8 |
| Nc1ncnc2c1nc(Cl)n2[C@@H]1O[C@H](CO)[C@@H](O)[C@H]1O [8-chloro-adenosine] (top concentration 50000 nM) | 4.1 | -3.6 | -0.9 | -5.3 | 1.8 | 7.1 | 7.3 | 2.8 | 7.5 | 1.6 | 1.1 | 2.4 | 4.3 | 9.1 | -1.8 | -1.9 | -3.4 | -2.1 | -3.1 | -5.3 |
| C/C=C1\NC(=O)[C@H]2CSSCC/C=C/[C@H](CC(=O)N[C@H](C(C)C)C(=O)N2)OC(=O)[C@H](C(C)C)NC1=O [Romidepsin] (top concentration 1000 nM) | 3.16 | -0.54 | 1.66 | 2.06 | 2.86 | 3.96 | 4.16 | 1.66 | 1.86 | 3.06 | 2.66 | 6.76 | 1.16 | 1.16 | 5.06 | 1.96 | 3.26 | 3.46 | 0.76 | -11 |
| Cc1cc2c(C(C)C)c(O)c(O)c(C=O)c2c(O)c1-c1c(C)cc2c(C(C)C)c(O)c(O)c(C=O)c2c1O [AT-101] (top concentration 100000 nM) | 3.08 | 4.98 | 1.88 | 4.58 | 5.98 | 3.78 | 5.78 | 5.18 | 2.48 | 3.98 | 6.38 | 4.18 | 4.48 | 4.88 | -0.32 | 1.98 | 5.08 | 0.18 | 0.98 | 0.98 |
| C=C1C[C@@H]2[C@H](CC[C@]3(C)C(=O)CC[C@@H]23)[C@@]2(C)C=CC(=O)C=C12 [Exemestane] (top concentration 10000 nM) | -0.9 | 1 | -1.9 | -1.9 | -1.2 | -1.9 | 1.1 | -0.4 | -1.9 | -1.9 | 1.5 | -0.9 | 10 | -0.9 | 2.3 | -0.4 | -1.9 | -0.1 | -1.9 | -0.7 |
| O=C(Nc1ccncc1)C(=O)c1cn(Cc2ccc(Cl)cc2)c2ccccc12 [Indibulin] (top concentration 10000 nM) | 12 | -1.46 | 5.84 | 9.94 | 6.84 | 11.9 | 11.8 | 6.14 | 11.3 | 1.54 | 0.34 | 5.74 | 17 | 6.04 | 7.14 | 4.74 | 23.4 | 3.44 | 9.34 | -2.76 |
| Nc1nc(Cl)nc2c1ncn2[C@@H]1O[C@H](CO)[C@@H](O)[C@@H]1F [Clofarabine] (top concentration 10000 nM) | 9.6 | 3 | 3.5 | 1.8 | -22.6 | 7 | 10.5 | 10.3 | 1 | 6.5 | 2.1 | 9.2 | 5.6 | 8.2 | 8.3 | 1.8 | 4.9 | -26.5 | -5.6 | -18.6 |
